Here are results for 20 compounds from patent publication US10040781B2, “Tank-binding kinase inhibitor compounds” (Gilead Sciences, Inc., priority 2014, dated 2018).

Molecules are shown by their SMILES. Bounds are passed on as bounds.

One may read the IC50 as the midpoint of a concentration-inhibition curve.

The target of one assay is IKKε (Homo sapiens (Human), UniProt Q14164). In words: IKKε TR-FRET enzymatic assay. The format is biochemical. The settings on record: read-out: IKKe IC50.
The target in another assay is hJAK2 (Homo sapiens (Human), UniProt O60674). In words: hJAK2 LANCE TR-FRET enzymatic assay. In kind it is biochemical. The settings on record: read-out: JAK2 IC50. (In general: Time-resolved FRET reads energy transfer from a long-lived donor to a nearby acceptor.)
Sequence of hJAK2 (O60674 whole entry): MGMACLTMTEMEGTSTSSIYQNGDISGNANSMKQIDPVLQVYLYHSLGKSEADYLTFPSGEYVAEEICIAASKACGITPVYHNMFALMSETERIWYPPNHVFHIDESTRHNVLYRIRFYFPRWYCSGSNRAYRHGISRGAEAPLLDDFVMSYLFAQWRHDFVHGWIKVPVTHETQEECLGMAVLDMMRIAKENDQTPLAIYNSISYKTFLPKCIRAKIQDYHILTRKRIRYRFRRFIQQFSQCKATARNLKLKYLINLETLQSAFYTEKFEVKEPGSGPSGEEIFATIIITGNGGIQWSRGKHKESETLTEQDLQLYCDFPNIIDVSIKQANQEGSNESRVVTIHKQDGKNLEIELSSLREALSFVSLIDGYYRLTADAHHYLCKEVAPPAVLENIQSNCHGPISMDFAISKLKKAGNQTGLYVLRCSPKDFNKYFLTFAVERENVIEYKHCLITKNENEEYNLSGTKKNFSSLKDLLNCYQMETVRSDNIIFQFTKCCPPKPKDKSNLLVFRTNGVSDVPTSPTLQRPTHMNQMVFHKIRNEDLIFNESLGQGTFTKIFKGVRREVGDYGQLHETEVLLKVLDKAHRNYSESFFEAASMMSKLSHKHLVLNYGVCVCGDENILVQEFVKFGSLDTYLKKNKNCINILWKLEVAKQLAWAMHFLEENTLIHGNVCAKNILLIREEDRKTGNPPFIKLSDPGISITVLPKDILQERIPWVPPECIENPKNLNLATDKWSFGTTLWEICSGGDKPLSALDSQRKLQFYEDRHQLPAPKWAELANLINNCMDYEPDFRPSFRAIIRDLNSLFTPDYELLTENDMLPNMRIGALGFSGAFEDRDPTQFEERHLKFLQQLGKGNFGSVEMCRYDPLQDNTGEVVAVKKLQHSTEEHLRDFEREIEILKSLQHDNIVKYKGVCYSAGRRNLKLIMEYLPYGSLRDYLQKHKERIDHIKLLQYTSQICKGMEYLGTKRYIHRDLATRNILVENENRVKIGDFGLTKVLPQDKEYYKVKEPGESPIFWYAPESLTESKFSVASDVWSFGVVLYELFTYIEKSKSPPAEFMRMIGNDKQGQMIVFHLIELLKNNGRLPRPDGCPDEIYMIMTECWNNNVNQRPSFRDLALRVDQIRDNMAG
Another assay addresses TBK1 (Homo sapiens (Human), UniProt Q9UHD2). In words: TBK1 TR-FRET enzymatic assay.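 Note: phosphorylation of a biotinylated Ser/Thr peptide by purified full-length recombinant TBK1, read by TR-FRET after 240 min at 25 °C, IC50 is the geometric mean of at least four runs.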

Sequence of TBK1 (Q9UHD2 whole entry): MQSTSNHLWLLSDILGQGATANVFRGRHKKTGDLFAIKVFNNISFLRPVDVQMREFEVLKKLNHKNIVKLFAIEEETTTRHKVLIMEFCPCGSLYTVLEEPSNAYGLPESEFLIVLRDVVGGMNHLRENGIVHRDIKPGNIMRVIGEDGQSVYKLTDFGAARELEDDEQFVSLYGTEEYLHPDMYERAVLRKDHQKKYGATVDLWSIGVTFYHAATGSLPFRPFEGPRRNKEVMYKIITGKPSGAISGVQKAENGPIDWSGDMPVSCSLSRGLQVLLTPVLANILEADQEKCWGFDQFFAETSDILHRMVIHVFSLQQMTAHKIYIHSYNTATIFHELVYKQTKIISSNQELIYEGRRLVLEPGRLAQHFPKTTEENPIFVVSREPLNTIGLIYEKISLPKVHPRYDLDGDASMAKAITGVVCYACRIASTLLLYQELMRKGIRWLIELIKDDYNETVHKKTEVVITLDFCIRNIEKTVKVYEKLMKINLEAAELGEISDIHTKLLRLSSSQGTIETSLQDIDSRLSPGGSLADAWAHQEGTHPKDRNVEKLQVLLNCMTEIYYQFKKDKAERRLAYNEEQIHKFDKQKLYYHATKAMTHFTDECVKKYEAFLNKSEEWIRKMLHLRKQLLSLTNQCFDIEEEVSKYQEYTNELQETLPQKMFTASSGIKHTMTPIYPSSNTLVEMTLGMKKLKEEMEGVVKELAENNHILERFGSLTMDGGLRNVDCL
Sequence of IKKε (Q14164 whole entry): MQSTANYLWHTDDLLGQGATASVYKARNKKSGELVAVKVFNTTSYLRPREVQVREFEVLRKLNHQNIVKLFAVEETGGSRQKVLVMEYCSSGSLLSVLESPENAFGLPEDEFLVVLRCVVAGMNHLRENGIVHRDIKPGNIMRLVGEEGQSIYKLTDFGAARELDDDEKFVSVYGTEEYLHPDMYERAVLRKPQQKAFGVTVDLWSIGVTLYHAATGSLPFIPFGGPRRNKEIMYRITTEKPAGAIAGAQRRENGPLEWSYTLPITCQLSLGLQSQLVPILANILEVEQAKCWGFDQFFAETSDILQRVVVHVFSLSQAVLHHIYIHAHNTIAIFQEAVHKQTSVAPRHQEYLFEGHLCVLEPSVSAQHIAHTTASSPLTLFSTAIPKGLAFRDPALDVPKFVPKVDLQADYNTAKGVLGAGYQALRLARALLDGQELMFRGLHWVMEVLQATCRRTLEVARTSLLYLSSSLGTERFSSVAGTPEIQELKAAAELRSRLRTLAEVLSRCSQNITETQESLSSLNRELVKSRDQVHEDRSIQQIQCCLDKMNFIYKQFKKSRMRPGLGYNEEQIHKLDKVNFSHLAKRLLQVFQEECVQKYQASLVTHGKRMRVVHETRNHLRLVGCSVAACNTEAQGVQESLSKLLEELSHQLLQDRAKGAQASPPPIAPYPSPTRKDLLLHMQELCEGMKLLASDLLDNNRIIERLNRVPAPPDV

Turning to `C[C@H](O)C(=O)N1CCC[C@H](Oc2ccc(-c3ncnc(Nc4ccc(N5CCN(C6COC6)CC5)cc4)n3)cc2C#N)C1` [Example 128, 2-(((S)-1-((S)-2-hydroxypropanoyl)piperidin-3-yl)oxy)-5-(4-((4-(4-(oxetan-3-yl)piperazin-1-yl)phenyl)amino)-1,3,5-triazin-2-yl)benzonitrile], the half-maximal inhibitory concentration (IC50) is 0.177 µM at IKKε, 0.632 µM at hJAK2 and 0.037 µM against TBK1.

In the case of `N#Cc1cc(-c2ncnc(Nc3ccc(N4CCN(C5COC5)CC4)cc3)n2)ccc1O[C@H]1CCN(C(=O)[C@H]2CCCCN2)C[C@H]1F` [Example 129, 2-(((3R,4S)-3-fluoro-1-((R)-piperidine-2-carbonyl)piperidin-4-yl)oxy)-5-(4-((4-(4-(oxetan-3-yl)piperazin-1-yl)phenyl)amino)-1,3,5-triazin-2-yl)benzonitrile], the IC50 is 0.619 µM on IKKε, at least 1 µM at hJAK2 and 0.334 µM against TBK1.

As to `N#Cc1cc(-c2ncnc(Nc3ccc(N4CCN(C5COC5)CC4)cc3)n2)ccc1O[C@H]1CCN(C(=O)[C@H]2CCCN2)C[C@H]1F` [Example 130, 2-(((3R,4S)-3-fluoro-1-((R)-pyrrolidine-2-carbonyl)piperidin-4-yl)oxy)-5-(4-((4-(4-(oxetan-3-yl)piperazin-1-yl)phenyl)amino)-1,3,5-triazin-2-yl)benzonitrile], the values for the IC50 at IKKε, on hJAK2 and against TBK1 were 0.073 µM, at least 1 µM and 0.029 µM, respectively.

Take `N#Cc1cc(-c2ncnc(Nc3ccc(N4CCN(C5COC5)CC4)cc3)n2)ccc1O[C@H]1CCN(C(=O)[C@@H]2CCCCN2)C[C@H]1F` [Example 131, 2-(((3R,4S)-3-fluoro-1-((S)-piperidine-2-carbonyl)piperidin-4-yl)oxy)-5-(4-((4-(4-(oxetan-3-yl)piperazin-1-yl)phenyl)amino)-1,3,5-triazin-2-yl)benzonitrile]: the IC50 was 0.175 µM at IKKε, at least 1 µM at hJAK2 and 0.101 µM against TBK1.

For the compound `N#Cc1cc(-c2ncnc(Nc3ccc(N4CCN(C5COC5)CC4)cc3)n2)ccc1O[C@H]1CCN(C(=O)[C@H]2CC(F)(F)CN2)C[C@H]1F` [Example 132, 2-(((3R,4S)-1-((R)-4,4-difluoropyrrolidine-2-carbonyl)-3-fluoropiperidin-4-yl)oxy)-5-(4-((4-(4-(oxetan-3-yl)piperazin-1-yl)phenyl)amino)-1,3,5-triazin-2-yl)benzonitrile], the IC50 was 0.051 µM at IKKε, at least 1 µM on hJAK2 and 0.025 µM against TBK1.

Take `C[C@H](O)C(=O)N1CCC(Oc2cc(C#N)cc(-c3ncnc(Nc4ccc(N5CCN(C6COC6)CC5)cc4)n3)c2)CC1` [Example 134, (S)-3-((1-(2-hydroxypropanoyl)piperidin-4-yl)oxy)-5-(4-((4-(4-(oxetan-3-yl)piperazin-1-yl)phenyl)amino)-1,3,5-triazin-2-yl)benzonitrile]: the IC50 on IKKε is at least 1 µM; on hJAK2 it was 0.371 µM; against TBK1, 0.52 µM.

Regarding `N#Cc1cc(-c2ncnc(Nc3ccc(N4CCN(C5COC5)CC4)cc3)n2)ccc1O[C@H]1CCN(C(=O)c2cn[nH]c2Cl)C[C@H]1F` [Example 136, 2-(((3R,4S)-1-(5-chloro-1H-pyrazole-4-carbonyl)-3-fluoropiperidin-4-yl)oxy)-5-(4-((4-(4-(oxetan-3-yl)piperazin-1-yl)phenyl)amino)-1,3,5-triazin-2-yl)benzonitrile], the IC50 stood at 0.073 µM on IKKε, 0.167 µM at hJAK2 and 0.046 µM against TBK1.

As to `N#Cc1cc(-c2ncnc(Nc3ccc(N4CCN(C5COC5)CC4)cc3)n2)ccc1O[C@H]1CCN(C(=O)c2cc[nH]c(=O)c2)C[C@H]1F` [Example 137, 2-(((3R,4S)-3-fluoro-1-(2-oxo-1,2-dihydropyridine-4-carbonyl)piperidin-4-yl)oxy)-5-(4-((4-(4-(oxetan-3-yl)piperazin-1-yl)phenyl)amino)-1,3,5-triazin-2-yl)benzonitrile], the IC50 on IKKε is 0.032 µM; at hJAK2, 0.207 µM; on TBK1, 0.019 µM.

`N#CCC(=O)N1CC[C@H](Oc2ccc(-c3ncnc(Nc4ccc(N5CCN(C6COC6)CC5)cc4)n3)cc2C#N)[C@H](F)C1` [Example 138, 2-(((3R,4S)-1-(2-cyanoacetyl)-3-fluoropiperidin-4-yl)oxy)-5-(4-((4-(4-(oxetan-3-yl)piperazin-1-yl)phenyl)amino)-1,3,5-triazin-2-yl)benzonitrile]: the figures for the IC50 on IKKε, at hJAK2 and on TBK1 were 0.002 µM, 0.146 µM and 0.002 µM, respectively.

Turning to `N#Cc1cc(-c2ncnc(Nc3ccc(N4CCN(C5COC5)CC4)cc3)n2)ccc1O[C@H]1CCN(C(=O)CCO)C[C@H]1F` [Example 139, 2-(((3R,4S)-3-fluoro-1-(3-hydroxypropanoyl)piperidin-4-yl)oxy)-5-(4-((4-(4-(oxetan-3-yl)piperazin-1-yl)phenyl)amino)-1,3,5-triazin-2-yl)benzonitrile], the IC50 at IKKε came out at 0.007 µM; at hJAK2, 0.408 µM; against TBK1 it was 0.004 µM.

As to `N#Cc1cc(-c2ncnc(Nc3ccc(N4CCN(C5COC5)CC4)cc3)n2)ccc1O[C@H]1CCN(C(=O)C2(O)CC2)C[C@H]1F` [Example 140, 2-(((3R,4S)-3-fluoro-1-(1-hydroxycyclopropanecarbonyl)piperidin-4-yl)oxy)-5-(4-((4-(4-(oxetan-3-yl)piperazin-1-yl)phenyl)amino)-1,3,5-triazin-2-yl)benzonitrile], the IC50 turned out to be 0.01 µM at IKKε, 0.341 µM at hJAK2 and 0.006 µM against TBK1.

For `N#Cc1cc(-c2ncnc(Nc3ccc(N4CCN(C5COC5)CC4)cc3)n2)ccc1O[C@H]1CCN(C(=O)c2ccc[nH]2)C[C@H]1F` [Example 141, 2-(((3R,4S)-3-fluoro-1-(1H-pyrrole-2-carbonyl)piperidin-4-yl)oxy)-5-(4-((4-(4-(oxetan-3-yl)piperazin-1-yl)phenyl)amino)-1,3,5-triazin-2-yl)benzonitrile], the IC50 amounted to 0.002 µM at IKKε, 0.356 µM on hJAK2 and 0.003 µM against TBK1.

In the case of `N#Cc1cc(-c2ncnc(Nc3ccc(N4CCN(C5COC5)CC4)cc3)n2)ccc1O[C@H]1CCN(C(=O)c2ncc[nH]2)C[C@H]1F` [Example 142, 2-(((3R,4S)-3-fluoro-1-(1H-imidazole-2-carbonyl)piperidin-4-yl)oxy)-5-(4-((4-(4-(oxetan-3-yl)piperazin-1-yl)phenyl)amino)-1,3,5-triazin-2-yl)benzonitrile], the IC50 was determined as 0.004 µM at IKKε, 0.174 µM at hJAK2 and 0.003 µM at TBK1.

For the compound `N#Cc1cc(-c2ncnc(Nc3ccc(N4CCN(C5COC5)CC4)cc3)n2)ccc1O[C@H]1CCN(C(=O)c2cnn[nH]2)C[C@H]1F` [Example 143, 2-(((3R,4S)-3-fluoro-1-(1H-1,2,3-triazole-5-carbonyl)piperidin-4-yl)oxy)-5-(4-((4-(4-(oxetan-3-yl)piperazin-1-yl)phenyl)amino)-1,3,5-triazin-2-yl)benzonitrile], the IC50 at IKKε was found to be 0.001 µM; at hJAK2, 0.084 µM; at TBK1, 0.002 µM.

Regarding `N#Cc1cc(-c2ncnc(Nc3ccc(N4CCN(C5COC5)CC4)cc3)n2)ccc1O[C@H]1CCN(C(=O)c2nnc[nH]2)C[C@H]1F` [Example 144, 2-(((3R,4S)-3-fluoro-1-(4H-1,2,4-triazole-3-carbonyl)piperidin-4-yl)oxy)-5-(4-((4-(4-(oxetan-3-yl)piperazin-1-yl)phenyl)amino)-1,3,5-triazin-2-yl)benzonitrile], the IC50 on IKKε worked out at 0.001 µM; on hJAK2, 0.104 µM; on TBK1, 0.002 µM.

As to `N#Cc1cc(-c2ncnc(Nc3ccc(N4CCN(C5COC5)CC4)cc3)n2)ccc1O[C@H]1CCN(C(=O)c2ccn[nH]2)C[C@H]1F` [Example 145, 2-(((3R,4S)-3-fluoro-1-(1H-pyrazole-5-carbonyl)piperidin-4-yl)oxy)-5-(4-((4-(4-(oxetan-3-yl)piperazin-1-yl)phenyl)amino)-1,3,5-triazin-2-yl)benzonitrile], the IC50 was determined as 0.001 µM on IKKε, 0.219 µM at hJAK2 and 0.002 µM against TBK1.

For `N#Cc1cc(-c2ncnc(Nc3ccc(N4CCN(C5COC5)CC4)cc3)n2)ccc1O[C@H]1CCN(C(=O)c2cnc[nH]2)C[C@H]1F` [Example 146, 2-(((3R,4S)-3-fluoro-1-(1H-imidazole-5-carbonyl)piperidin-4-yl)oxy)-5-(4-((4-(4-(oxetan-3-yl)piperazin-1-yl)phenyl)amino)-1,3,5-triazin-2-yl)benzonitrile], the values for the IC50 at IKKε, on hJAK2 and at TBK1 were 0.001 µM, 0.156 µM and 0.003 µM, respectively.

For `Cn1cc(C(=O)N2CC[C@H](Oc3ccc(-c4ncnc(Nc5ccc(N6CCN(C7COC7)CC6)cc5)n4)cc3C#N)[C@H](F)C2)nn1` [Example 147, 2-(((3R,4S)-3-fluoro-1-(1-methyl-1H-1,2,3-triazole-4-carbonyl)piperidin-4-yl)oxy)-5-(4-((4-(4-(oxetan-3-yl)piperazin-1-yl)phenyl)amino)-1,3,5-triazin-2-yl)benzonitrile], the IC50 amounted to 0.001 µM on IKKε, 0.184 µM at hJAK2 and 0.003 µM against TBK1.

For `C[C@H](O)C(=O)N1CCC(Oc2ccc(-c3ncnc(Nc4ccc(N5CCN(C6COC6)CC5)cc4)n3)cc2C#N)C(F)(F)C1` (stereo partly drawn) [Example 154, 2-((3,3-difluoro-1-((S)-2-hydroxypropanoyl)piperidin-4-yl)oxy)-5-(4-((4-(4-(oxetan-3-yl)piperazin-1-yl)phenyl)amino)-1,3,5-triazin-2-yl)benzonitrile], the IC50 at IKKε is 0.003 µM; at hJAK2 it was 0.168 µM; against TBK1 it was 0.001 µM.

With `C[C@@H](O)C(=O)N1CCC(Oc2ccc(-c3ncnc(Nc4ccc(N5CCN(C6COC6)CC5)cc4)n3)cc2C#N)C(F)(F)C1` (stereo partly drawn) [Example 157, 2-((3,3-difluoro-1-((R)-2-hydroxypropanoyl)piperidin-4-yl)oxy)-5-(4-((4-(4-(oxetan-3-yl)piperazin-1-yl)phenyl)amino)-1,3,5-triazin-2-yl)benzonitrile], the figures for the half-maximal inhibitory concentration (IC50) on IKKε, at hJAK2 and on TBK1 were 0.014 µM, 0.188 µM and 0.003 µM, respectively.
